We go through twelve molecules from patent publication EP3180003B1 (The Regents of the University of California, priority 2014, dated 2016).

SMILES strings stand for the structures. Read-outs that look alike come from different tables or passages of the source.

In one assay the test system is C57BL/6 mice. In words: Ethanol-induced loss of righting reflex (LORR) in vivo. Particulars: 10 mg/kg i.p. The procedure:
Compound 1 was administered (10 mg/kg) i.p. to C57BL/6 mice, which were administered 20 min later 3.6 g/kg ethanol i.p. to induce loss of righting. […] These findings indicate that this class of compounds can cross the blood-brain barrier and act as a PKCε inhibitor, and prolong the duration of the LORR in the treated animals. Such increased signs of ethanol intoxication are contemplated to be aversive and to limit ethanol self-administration.

Assay [1] deals with T1, PKCε (Homo sapiens, UniProt Q02156).
T1 sequence (Q02156 1-737): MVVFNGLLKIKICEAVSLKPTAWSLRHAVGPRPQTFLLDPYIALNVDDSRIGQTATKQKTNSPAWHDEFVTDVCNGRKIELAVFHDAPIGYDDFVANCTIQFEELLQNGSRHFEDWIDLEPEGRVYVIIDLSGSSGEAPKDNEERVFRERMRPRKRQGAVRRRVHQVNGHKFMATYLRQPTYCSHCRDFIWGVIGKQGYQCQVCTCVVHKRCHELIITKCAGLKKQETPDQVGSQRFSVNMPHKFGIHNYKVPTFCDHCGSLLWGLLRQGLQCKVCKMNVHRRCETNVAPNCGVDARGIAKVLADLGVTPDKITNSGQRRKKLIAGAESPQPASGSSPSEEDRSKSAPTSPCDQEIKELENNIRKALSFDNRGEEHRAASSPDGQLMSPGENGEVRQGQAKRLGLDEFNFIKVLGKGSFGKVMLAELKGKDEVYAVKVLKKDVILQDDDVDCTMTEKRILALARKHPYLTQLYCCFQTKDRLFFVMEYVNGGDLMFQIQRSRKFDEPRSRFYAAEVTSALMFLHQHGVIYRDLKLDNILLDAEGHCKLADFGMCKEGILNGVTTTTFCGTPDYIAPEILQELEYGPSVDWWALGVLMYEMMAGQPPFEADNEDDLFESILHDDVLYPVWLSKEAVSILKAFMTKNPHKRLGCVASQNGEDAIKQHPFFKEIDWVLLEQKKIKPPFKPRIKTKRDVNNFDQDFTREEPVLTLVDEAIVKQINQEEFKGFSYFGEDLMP
In words: Inhibition of PKCε (Example 4). The assay is classed as biochemical.

Another assay addresses T2, PKCδ (Homo sapiens, UniProt Q05655).
T2 construct: purchased Invitrogen (Carlsbad, CA, USA)
In words: Inhibition of novel PKCδ (Example 4). The assay is classed as biochemical. As to the method: (§1) For example, to measure inhibition of conventional PKCγ, novel PKCδ, and atypical PKCζ, the same kinase assay disclosed above for PKCε can be used with recombinant human PKCγ, PKCδ, or PKCζ purchased from Invitrogen (Carlsbad, CA, USA) in place of PKCs, with 0.4 mM CaCl2 assay buffer for PKCγ.
(§2) The specificity of the compounds disclosed herein for inhibition of PKCε can be determined by examining their ability to inhibit ROCK1 and selected members of each PKC subfamily according to the protocols of the counter-screening assay for selectivity disclosed herein. This assay can be performed according to the biochemical assay for PKCε described above with some modifications. Rather than varying the concentrations of the inhibitors, only 10µM of each compound can be used.

The next assay has as its target T3, PKCζ (Homo sapiens, UniProt Q05513).
T3 construct: purchased Invitrogen (Carlsbad, CA, USA)
T3 sequence (Q05513 1-592): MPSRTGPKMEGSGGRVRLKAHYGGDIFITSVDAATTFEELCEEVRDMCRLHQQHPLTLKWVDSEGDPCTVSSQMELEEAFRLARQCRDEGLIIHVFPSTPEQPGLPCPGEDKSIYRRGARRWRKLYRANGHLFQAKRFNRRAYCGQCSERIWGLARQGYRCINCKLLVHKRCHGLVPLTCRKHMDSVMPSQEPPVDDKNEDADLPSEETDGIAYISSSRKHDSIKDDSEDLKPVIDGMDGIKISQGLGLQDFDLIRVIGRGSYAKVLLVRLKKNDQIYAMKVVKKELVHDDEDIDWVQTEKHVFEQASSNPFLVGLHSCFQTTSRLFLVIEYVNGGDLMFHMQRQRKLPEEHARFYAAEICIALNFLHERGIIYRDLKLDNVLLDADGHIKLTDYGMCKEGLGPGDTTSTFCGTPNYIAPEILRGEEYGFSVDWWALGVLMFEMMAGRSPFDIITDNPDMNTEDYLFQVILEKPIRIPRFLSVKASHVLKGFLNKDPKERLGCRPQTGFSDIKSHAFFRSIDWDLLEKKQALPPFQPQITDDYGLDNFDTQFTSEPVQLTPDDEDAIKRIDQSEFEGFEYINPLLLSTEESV
In words: Inhibition of atypical PKCζ (Example 4). The assay is classed as biochemical. The conditions noted are these: for activity against atypical PKCζ: at 10 µM, result in words. As to the method:
as §1, §2

In a further assay the target is T4, PKCθ (Homo sapiens, UniProt Q04759).
T4 construct: purchased Invitrogen P2996
T4 sequence (Q04759 whole entry): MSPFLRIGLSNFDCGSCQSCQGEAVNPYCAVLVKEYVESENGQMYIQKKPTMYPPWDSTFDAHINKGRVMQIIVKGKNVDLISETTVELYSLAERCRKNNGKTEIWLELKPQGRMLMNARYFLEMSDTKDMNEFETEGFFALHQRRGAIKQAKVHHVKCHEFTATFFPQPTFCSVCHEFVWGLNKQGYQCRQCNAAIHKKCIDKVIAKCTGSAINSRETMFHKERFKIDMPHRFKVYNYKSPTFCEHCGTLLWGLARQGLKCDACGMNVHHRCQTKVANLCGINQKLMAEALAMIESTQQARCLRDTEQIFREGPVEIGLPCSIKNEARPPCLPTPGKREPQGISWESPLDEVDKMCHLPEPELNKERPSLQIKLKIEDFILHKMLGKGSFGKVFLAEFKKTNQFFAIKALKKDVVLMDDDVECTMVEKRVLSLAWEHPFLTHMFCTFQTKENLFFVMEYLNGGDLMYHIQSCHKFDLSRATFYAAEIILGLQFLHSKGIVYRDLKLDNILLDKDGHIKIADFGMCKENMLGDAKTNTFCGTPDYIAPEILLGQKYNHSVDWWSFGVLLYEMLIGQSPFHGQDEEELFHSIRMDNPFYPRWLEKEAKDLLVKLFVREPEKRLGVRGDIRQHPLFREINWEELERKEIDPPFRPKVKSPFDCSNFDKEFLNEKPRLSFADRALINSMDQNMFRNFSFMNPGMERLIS
In words: Inhibition of novel PKCθ (Example 4). It counts as biochemical.
Description: Inhibition of PKC theta activity can be measured using the same primary phosphotransferase assay for PKCε except one substitutes recombinant human PKC theta purchased from Invitrogen for PKCε. PKC theta can also be assayed with a fluorescence polarization (FP) assay using the commercially available Protein Kinase C Assay Kit, Red, from Invitrogen (Product ID No P2941), essentially in accordance with the protocol supplied by the manufacturer. The substrate used is […] (Mw 1561), which can be obtained from Invitrogen (Product ID No P2760). The isozyme PKC theta can be obtained from Invitrogen (Product ID No P2996).
as §2

Assay [2] addresses T1, PKCε. In words: Primary PKCε phosphotransferase assay. The assay is classed as biochemical. More on the design: FLAG; made in house; host or cells: COS-7 cells. Particulars: log of molar IC50. The procedure:
The assay mixture can contain 2 ng FLAG-tagged human PKCε expressed and purified from COS-7 cells in 25 µl kinase buffer containing 20 mM Tris-HCI, pH 7.4, 0.25 mM EGTA, 0.1 mg/ml BSA, 0.72% TritonX-100, 10 mM MgCl2, 0.48 µg/µl L-α-phosphatidylserine (PS) and 0.107 µg/µl sn-1,2-dioleoylglecerol (DG) (Avanti Polar Lipids, Alabaster, AL, USA), 2 µM K(Biotin)-[…], 2.5 µM ATP and 0.05 µCi [^32γ-P]ATP. After incubation at 27 °C for 90 min, the reaction is terminated by adding 12.5 µl of 7.5 M of guanidine hydrochloride. Eight microliters of reaction mixture is spotted onto a pre-cut streptavidin-coated SAM Biotin Capture membrane. […] The membrane is then air dried at room temperature for 60 min and radioactivity remaining on the membrane can be measured by liquid scintillation counting. Specific PKCε activity can then be calculated as the difference between cpms detected in the presence and absence of lipids (PS and DG). Maximal PKCε activity (positive control) can be detected in reactions lacking an inhibitor. […]
IC50 values can be calculated from normalized dose-response curves by nonlinear regression analysis.
The ability of the compounds disclosed herein to inhibit PKCε can be assessed using the primary PKCε assay described above using the biotinylated substrate […]. […]

In assay [3] the target is T1, PKCε. In words: FRET based LANCE Ultra kinase assay. The assay is classed as biochemical. The procedure:
Certain compounds of this invention were tested in the captioned assay.
(TR-FRET usually uses a lanthanide donor and a delayed reading to cut background.)

The target in the next assay is T5, PKCγ (Homo sapiens, UniProt P05129).
T5 construct: purchased Invitrogen (Carlsbad, CA, USA)
In words: Inhibition of conventional PKCγ (Example 4). The assay is classed as biochemical. The conditions noted are these: for inhibition of conventional PKCγ: at 10 µM, result in words. As to the method: as §1, §2

For assay [4], the target named is T1, PKCε. In words: Cell-based assay for PKCε modulation of GABAA receptors (γ2 S327 phosphorylation, ELISA format). Particulars: HEK293 cell line expressing α1β2γ2 GABAA receptors and over-expressing PKCε; anti-γ2S(P)327 ELISA. (In an ELISA, binding on a coated surface is turned into a signal by an enzyme label.)
Description: PKCε inhibition can also be measured by assaying benzodiazepine modulation of GABAA receptors in intact cells. PKCε decreases benzodiazepine potency at GABAA receptors by phosphorylating S327 of GABAA y2 subunits. The GABAA cell-based assay uses a HEK293 cell line that expresses α1β2γ2 GABAA receptors and over-expresses PKCε. […] This 6-fold difference in benzodiazepine potency can be detected without addition of a PKC activator. The assay is performed using an anti-phospho antibody that recognizes γ2S(P)327 in an ELISA format to generate 8 point dose-response curves for each compound. Background values, detected from wells in which no primary antibody was added, are subtracted from sample values. Maximal phosphorylation (positive control) is detected in reactions containing phorbol ester and lacking an inhibitor.
[5] abbreviates: log of molar IC50, read-out: Log IC50 (converted).

T2 sequence (Q05655 whole entry): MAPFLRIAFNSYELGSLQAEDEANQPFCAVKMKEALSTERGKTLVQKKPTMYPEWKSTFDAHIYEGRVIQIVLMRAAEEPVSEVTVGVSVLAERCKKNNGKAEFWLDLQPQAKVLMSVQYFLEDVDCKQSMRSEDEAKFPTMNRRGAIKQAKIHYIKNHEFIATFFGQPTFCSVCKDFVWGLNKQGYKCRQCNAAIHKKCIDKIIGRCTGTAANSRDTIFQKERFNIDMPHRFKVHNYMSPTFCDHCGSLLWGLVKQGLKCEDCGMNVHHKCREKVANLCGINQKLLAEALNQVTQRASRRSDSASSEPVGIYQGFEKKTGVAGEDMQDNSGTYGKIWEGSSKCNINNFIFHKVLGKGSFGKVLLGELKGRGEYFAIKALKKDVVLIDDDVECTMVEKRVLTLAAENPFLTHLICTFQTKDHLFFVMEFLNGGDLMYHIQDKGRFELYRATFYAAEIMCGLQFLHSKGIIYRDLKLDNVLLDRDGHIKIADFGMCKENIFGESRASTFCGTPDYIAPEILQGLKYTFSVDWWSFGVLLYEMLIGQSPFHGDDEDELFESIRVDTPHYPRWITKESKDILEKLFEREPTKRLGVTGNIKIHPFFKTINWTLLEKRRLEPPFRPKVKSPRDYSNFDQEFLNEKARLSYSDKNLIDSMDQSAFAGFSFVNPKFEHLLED

On to `NC(CNC(=O)C1(c2ccc(Cl)cc2)CC1)[C@H]1CC[C@H](C(=O)Nc2ccncc2)CC1` (relative stereo) [Compound 1, trans-4-[1-Amino-2-[[[1-(4-chlorophenyl)cyclopropyl]carbonyl]amino]ethyl]-N-4-pyridinyl-cyclohexylcarboxamide], for which the “increase of LORR duration” value in the assay on C57BL/6 mice (20 min before 3.6 g/kg ethanol i.p., versus vehicle-treated mice, p = 0.036) is listed as 45%. Further, in the assay with C57BL/6 mice (drug-treated mice (n=10), 3.6 g/kg ethanol i.p., vehicle 31.4 ± 4.9 (n=8)), the LORR duration turned out to be 45.7 ± 4.0. Besides, the inhibition constant (Ki) (as a rule, the equilibrium dissociation constant of an inhibitor or competing ligand from its target) on PKCε [1] (PKCε, read-out: Ki) was less than 20 nM; at PKCε [1] (n=3, read-out: PKCε Ki) it was 17 nM; at PKCδ (n=3), 173 nM; at PKCθ (n=3), 91.7 nM. Besides, the IC50 (as a rule, the concentration that inhibits the measured activity by half) at PKCε [1] (read-out: PKCε Log IC50 (converted)) is 55 nM; on PKCδ (read-out: PKCδ Log IC50 (converted)), 708 nM; on PKCθ (read-out: PKCθ Log IC50 (converted)) it was 372 nM; on PKCε [2] it was 131 nM; on PKCε [3] (read-out: IC50) it was 56.6 nM; at PKCε [4], 8.9 nM. In addition, the inhibition (commonly the drop in the measured response relative to a control, in per cent) at 10 µM on PKCδ (10 µM inhibitor, n=3, read-out: Percent inhibition of PKC activity, Novel PKCδ) was determined as 96.3 ± 0.7%; at PKCζ (10 µM inhibitor, n=3, read-out: Percent inhibition of PKC activity, Atypical PKCζ) it was 55.9 ± 3.8%; at PKCθ (10 µM inhibitor, n=3, read-out: Percent inhibition of PKC activity, Novel PKCθ) it was 96.9 ± 1.1%; at PKCγ (10 µM inhibitor, n=3, read-out: Percent inhibition of PKC activity, Conventional PKCγ), 16.7 ± 3.8%. The “inhibition of conventional PKCγ” value against PKCγ is given as “inhibited”.
Regarding `NC(C(=O)NCC1(c2ccc(Cl)cc2)CC1)[C@H]1CC[C@H](C(=O)Nc2ccncc2)CC1` (stereo partly drawn) [Compound 2], the IC50 is 1690 nM against PKCε [2] and 3240 nM at PKCε [3] (setting [5]).
Take `NC(CNC(=O)C1(c2ccc(F)cc2)CC1)[C@H]1CC[C@H](C(=O)Nc2ccncc2)CC1` (stereo partly drawn) [Compound 3]: the “Log IC50” value at PKCε [3] (log of molar IC50) is on record as -6.835. The IC50 on PKCε [3] (read-out: IC50) was found to be 146 nM.
Consider `NC(CNC(=O)C1(c2ccc(F)cc2Cl)CCCC1)[C@H]1CC[C@H](C(=O)Nc2ccncc2)CC1` (stereo partly drawn) [Compound 4], for which, at PKCε [3] (log of molar IC50), the “Log IC50” value was -6.917. For the same molecule, the half-maximal inhibitory concentration (IC50) at PKCε [3] (read-out: IC50) came to 121 nM.
Regarding `NC(CNC(=O)C1(c2ccc(F)cc2)CCCC1)[C@H]1CC[C@H](C(=O)Nc2ccncc2)CC1` (stereo partly drawn) [Compound 5], on PKCε [1] (log IC50 ± SE, n=3), the “PKCε Log IC50(M)” value was -7.37 ± 0.03 M. Moreover, the “activity against atypical PKCζ” value at PKCζ is reported as “almost no activity”. Besides, the “Log IC50” value at PKCε [3] (log of molar IC50) is -7.370. At PKCγ, the “inhibition of conventional PKCγ” value was “inhibited”.
Regarding `NC(CNC(=O)C1(c2ccc(F)c(F)c2)CC1)[C@H]1CC[C@H](C(=O)Nc2ccncc2)CC1` (stereo partly drawn) [Compound 6], the “Log IC50” value on PKCε [3] (log of molar IC50) is -7.282.
Consider `CC(C)(C(=O)NCC(N)[C@H]1CC[C@H](C(=O)Nc2ccncc2)CC1)c1cccs1` (stereo partly drawn) [Compound 7], for which the “Log IC50” value at PKCε [3] (log of molar IC50) was -6.553. For the same molecule, the IC50 at PKCε [3] (read-out: IC50) came out at 280 nM.
With `NC(CNC(=O)C1CCc2cc(Cl)ccc21)[C@H]1CC[C@H](C(=O)Nc2ccncc2)CC1` (stereo partly drawn) [Compound 8], the “Log IC50” value on PKCε [3] (log of molar IC50) is -6.445. In addition, on PKCε [3] (read-out: IC50), the IC50 is 359 nM.
Take `CC(C)(C(=O)NCC(N)[C@H]1CC[C@H](C(=O)Nc2ccncc2)CC1)c1ccc(Cl)cc1` (stereo partly drawn) [Compound 9]: the “activity against atypical PKCζ” value on PKCζ was “almost no activity”. At PKCε [3] (log of molar IC50), the “Log IC50” value is given as -7.398. On PKCε [3] (read-out: IC50), the half-maximal inhibitory concentration (IC50) amounted to 40 nM. For the same molecule, the “inhibition of conventional PKCγ” value against PKCγ was “inhibited”.
In the case of `NC(C(=O)NC1COc2ccccc21)[C@H]1CC[C@H](C(=O)Nc2ccncc2)CC1` (stereo partly drawn) [Compound 10], at PKCε [3] (log of molar IC50), the “Log IC50” value was -5.695. At PKCε [3] (read-out: IC50), the IC50 worked out at 2020 nM.
As for `NC(C(=O)N[C@@H]1CCCc2ccccc21)[C@H]1CC[C@H](C(=O)Nc2ccncc2)CC1` (stereo partly drawn) [Compound 11], the half-maximal inhibitory concentration (IC50) on PKCε [3] (setting [5]) and at PKCε [3] (read-out: IC50) was 3090 nM each time.
Turning to `NC(C(=O)NCc1ccc(F)cc1)[C@H]1CC[C@H](C(=O)Nc2ccncc2)CC1` (stereo partly drawn) [Compound 12], on PKCε [3] (log of molar IC50), the “Log IC50” value was -5.625. In addition, the half-maximal inhibitory concentration (IC50) on PKCε [3] (read-out: IC50) came out at 2370 nM.
